Like-named read-outs stand apart in the source and are kept apart here.
Legend:
PARP-1 enzyme = target: T1, PARP-1 enzyme (Homo sapiens, UniProt P09874); experiment: biochemical; details: mean ± SD, n=3; for inhibition at 0.5 µM: PARP-1, measured at the conc. of 0.5 μM, read-out: Inhibition rate (%)
T1 construct: purchased Trevigen 4690–096-K
Experimental: Olaparib was used as positive control. […] Then, the standard curve was drawn and the inhibition rate of each test compound was calculated.

[1] = test system: breast cancer cell line MDA-MB-436; experiment: MTT assay for cell growth inhibition; assay type: cell-based; details: Homo sapiens, read-out: EC50 (μM) MDA-MB-436 cell inhibitory activity
Experimental: The anti-proliferative activities of synthesized compounds were assessed against breast cancer cell line MDA-MB-436 by the 3-(4, 5-Dimethylthiazol-2-yl)-2,5-diphenyltetrazolium bromide (MTT) assay. The MDA-MB-436 cell was purchased from Chinese Academy of Sciences. […]. After treated with compounds for 72 h, cells were incubated with 20 μL of 5 mg/mL MTT for 4 h. The culture medium was removed, and 150 μL DMSO was added to dissolve the formazan crystals. Wells containing only media were used for background correction. The optical density was measured spectrophotometrically at 490 nm. EC50 values were calculated using GraphPad Prism 6 software. Data were expressed as mean ± SEM.

[2] = target: T2, AChE from electric eel (EeAChE) (Electrophorus electricus, UniProt O42275); experiment: biochemical
T2 construct: purchased Sigma-Aldrich
T2 sequence (O42275 24-633): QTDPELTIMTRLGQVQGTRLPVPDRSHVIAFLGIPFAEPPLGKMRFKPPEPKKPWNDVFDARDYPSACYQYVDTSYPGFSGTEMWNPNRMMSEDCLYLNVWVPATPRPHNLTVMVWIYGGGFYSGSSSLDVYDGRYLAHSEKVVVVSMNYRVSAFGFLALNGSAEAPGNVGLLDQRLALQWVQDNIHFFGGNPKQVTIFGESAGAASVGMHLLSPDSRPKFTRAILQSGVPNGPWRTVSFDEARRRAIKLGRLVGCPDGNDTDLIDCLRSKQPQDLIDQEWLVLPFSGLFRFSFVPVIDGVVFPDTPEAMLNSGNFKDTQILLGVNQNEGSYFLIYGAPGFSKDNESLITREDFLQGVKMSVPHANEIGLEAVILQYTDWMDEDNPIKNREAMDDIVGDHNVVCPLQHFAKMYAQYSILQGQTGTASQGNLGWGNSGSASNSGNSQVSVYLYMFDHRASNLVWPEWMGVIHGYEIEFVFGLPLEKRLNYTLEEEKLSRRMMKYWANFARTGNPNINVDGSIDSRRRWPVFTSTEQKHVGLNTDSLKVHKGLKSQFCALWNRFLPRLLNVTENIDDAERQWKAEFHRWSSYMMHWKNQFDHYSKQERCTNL
Experimental: (§1) The test compounds were dissolved in a minimum volume of DMSO (1%) and were diluted using sodium phosphate buffer (0.1 M, pH 7.4). A reaction mixture containing 20 μL sodium phosphate buffer, 100 μL DTMB (1 mM) and 40 μL AChE (0.2 U/Ml)/BChE (0.3 U/mL) was incubated with 20 μL of various concentrations of test compounds at 37 °C for 15 min followed by the addition of the substrate (20 μL) acetylthiocholine iodide (1 mM) or S-butyrylthiocholine iodide (1 mM) and incubation for another 3 min. […] The inhibition per cent was calculated by the following expression: (1-Ai/Ac) × 100, where Ai and Ac were the absorbance obtained for AChE/BChE in the presence and absence of inhibitors, respectively. […]

[3] = target: T3, BChE from equine serum (eqBChE) (Equus caballus, UniProt P81908); experiment: biochemical
T3 construct: butyrylcholinesterase (eqBChE, from equine serum); purchased Sigma-Aldrich; host or cells: equine serum
T3 sequence (P81908 whole entry): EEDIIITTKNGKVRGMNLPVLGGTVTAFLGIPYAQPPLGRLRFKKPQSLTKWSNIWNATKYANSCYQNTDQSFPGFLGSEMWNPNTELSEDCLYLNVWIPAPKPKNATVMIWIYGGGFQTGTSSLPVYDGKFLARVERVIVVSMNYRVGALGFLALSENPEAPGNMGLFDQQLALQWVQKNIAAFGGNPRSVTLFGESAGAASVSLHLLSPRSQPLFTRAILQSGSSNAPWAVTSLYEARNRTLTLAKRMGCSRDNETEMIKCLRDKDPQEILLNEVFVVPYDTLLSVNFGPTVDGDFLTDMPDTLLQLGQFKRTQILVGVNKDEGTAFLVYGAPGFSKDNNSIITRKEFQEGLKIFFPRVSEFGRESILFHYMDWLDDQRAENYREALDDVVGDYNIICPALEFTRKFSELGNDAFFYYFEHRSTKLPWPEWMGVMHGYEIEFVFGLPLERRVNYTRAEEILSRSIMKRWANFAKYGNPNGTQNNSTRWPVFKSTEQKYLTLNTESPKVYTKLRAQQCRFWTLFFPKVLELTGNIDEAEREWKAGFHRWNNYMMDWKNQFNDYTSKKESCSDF
Experimental: as §1

[4] = MDA-MB-436, MTT, incubated for 72 h, mean ± SD, n=3, concentration required to reduce cell proliferation by 50%
[5] = AChE from electric eel, mean ± SD, n=3, read-out: IC50 (μM) AChE
[6] = BChE from equine serum, mean ± SD, n=3, read-out: IC50 (μM) BChE

T1 sequence (P09874 whole entry): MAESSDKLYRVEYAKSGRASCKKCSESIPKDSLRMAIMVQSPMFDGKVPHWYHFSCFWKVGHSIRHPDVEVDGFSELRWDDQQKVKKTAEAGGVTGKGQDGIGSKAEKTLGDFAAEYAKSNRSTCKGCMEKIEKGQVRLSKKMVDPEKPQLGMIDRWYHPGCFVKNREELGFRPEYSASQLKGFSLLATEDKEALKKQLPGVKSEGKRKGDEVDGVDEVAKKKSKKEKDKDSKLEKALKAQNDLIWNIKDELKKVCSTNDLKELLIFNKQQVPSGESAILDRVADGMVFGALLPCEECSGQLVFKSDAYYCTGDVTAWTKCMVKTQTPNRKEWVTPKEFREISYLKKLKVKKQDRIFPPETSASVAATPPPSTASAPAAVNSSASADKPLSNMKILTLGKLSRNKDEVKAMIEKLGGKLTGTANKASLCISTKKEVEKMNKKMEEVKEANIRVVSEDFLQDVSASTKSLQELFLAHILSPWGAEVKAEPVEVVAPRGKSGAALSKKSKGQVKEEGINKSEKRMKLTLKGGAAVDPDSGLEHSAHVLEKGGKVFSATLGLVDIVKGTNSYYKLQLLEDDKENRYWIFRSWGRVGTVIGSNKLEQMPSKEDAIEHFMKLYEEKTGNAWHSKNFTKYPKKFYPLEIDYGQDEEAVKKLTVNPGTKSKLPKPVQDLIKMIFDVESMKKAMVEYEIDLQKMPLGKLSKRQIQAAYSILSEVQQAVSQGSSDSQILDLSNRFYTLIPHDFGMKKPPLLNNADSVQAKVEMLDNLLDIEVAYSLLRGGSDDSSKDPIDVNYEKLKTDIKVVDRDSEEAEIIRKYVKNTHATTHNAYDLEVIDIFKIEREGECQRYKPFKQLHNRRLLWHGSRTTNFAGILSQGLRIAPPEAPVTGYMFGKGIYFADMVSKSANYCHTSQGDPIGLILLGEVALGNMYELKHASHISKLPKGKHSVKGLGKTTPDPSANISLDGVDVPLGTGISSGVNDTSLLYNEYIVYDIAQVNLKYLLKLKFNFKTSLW

SMILES	inhibition at 0.5 µM (PARP-1 enzyme) [%]	EC50 [1, 4] [µM]	IC50 [2, 5] [µM]	IC50 [3, 6] [µM]	IC50 (PARP-1 enzyme) [nM]	EC50 ([1]; MDA-MB-436, 72 h) [µM]	IC50 [2] [µM]	IC50 [3] [µM]
COc1ccc(OC)c(/C=C/C(=O)N2CCN(C(=O)c3cc(Cc4n[nH]c(=O)c5ccccc45)ccc3F)CC2)c1 [5f, (E)-4-{[3-[4–(3-(2,5-dimethoxyphenyl)acryloyl)piperazine-1-carbonyl]-4-fluorophenyl]methyl} -2H-phthalazin-1-one]	75.6 ± 3.61	30.2 ± 3.25	76.9 ± 4.13	35.7 ± 2.98				
COc1ccccc1/C=C/C(=O)N1CCN(C(=O)c2cc(Cc3n[nH]c(=O)c4ccccc34)ccc2F)CC1 [5e, (E)-4-{[3-[4-(3-(2-methoxyphenyl)acryloyl)piperazine-1-carbonyl]-4-fluorophenyl]methyl}-2H-phthalazin-1-one]	62.6 ± 3.65	44.2 ± 1.95	56.9 ± 4.3	26.4 ± 1.93				
O=C(/C=C/c1ccc(Cl)cc1)N1CCN(C(=O)c2cc(Cc3n[nH]c(=O)c4ccccc34)ccc2F)CC1 [5j, (E)-4-{[3-[4–(3-(4-chlorophenyl)acryloyl)piperazine-1-carbonyl]-4-fluorophenyl]methyl} -2H -phthalazin-1-one]	75.5 ± 4.54	45.2 ± 1.68	86.5 ± 5.12	37.1 ± 2.37				
COc1ccc(/C=C/C(=O)N2CCN(C(=O)c3cc(Cc4n[nH]c(=O)c5ccccc45)ccc3F)CC2)cc1OC [5b, (E)-4-{[3-[4–(3-(3,4-dimethoxyphenyl)acryloyl)piperazine-1-carbonyl]-4-fluorophenyl]methyl}-2H-phthalazin-1-one]	77.2 ± 3.89	41.2 ± 1.95	45.2 ± 1.38	17.8 ± 0.72				
COc1ccc(/C=C/C(=O)N2CCN(C(=O)c3cc(Cc4n[nH]c(=O)c5ccccc45)ccc3F)CC2)cc1 [5c, (E)-4-{[3-[4–(3-(4-methoxyphenyl)acryloyl)piperazine-1-carbonyl]-4-fluorophenyl]methyl} -2H-phthalazin-1-one]	89.2 ± 10.6	14.2 ± 3.16	55.8 ± 0.6	179 ± 5.89	144 ± 5.26			
Cc1ccc(/C=C/C(=O)N2CCN(C(=O)c3cc(Cc4n[nH]c(=O)c5ccccc45)ccc3F)CC2)cc1 [5d, (E)-4-{[3-[4-(3-(4-methylphenyl)acryloyl)piperazine-1-carbonyl]-4-fluorophenyl]methyl} -2H-phthalazin-1-one]	64.2 ± 4.59	35.1 ± 3.42	72 ± 3.84	27.8 ± 0.87				
O=C(/C=C/c1cccc([N+](=O)[O-])c1)N1CCN(C(=O)c2cc(Cc3n[nH]c(=O)c4ccccc34)ccc2F)CC1 [5l, (E)-4-{[3-[4–(3-(3-nitrophenyl)acryloyl)piperazine-1-carbonyl]-4-fluorophenyl]methyl} -2H -phthalazin-1-one]	95.7 ± 4.35	11.6 ± 2.15	24.6 ± 1.1	9.16 ± 0.91	16.1 ± 1.25			
O=C(/C=C/c1cccc(F)c1)N1CCN(C(=O)c2cc(Cc3n[nH]c(=O)c4ccccc34)ccc2F)CC1 [5i, (E)-4-{[3-[4–(3-(3-fluorophenyl)acryloyl)piperazine-1-carbonyl]-4-fluorophenyl]methyl} -2H -phthalazin-1-one]	88.2 ± 5.24	14.2 ± 5.21	110 ± 9.18	33.4 ± 4.14	267 ± 9.32			
O=C(/C=C/c1ccc(C(F)(F)F)cc1)N1CCN(C(=O)c2cc(Cc3n[nH]c(=O)c4ccccc34)ccc2F)CC1 [5h, (E)-4-{[3-[4–(3-(4-trifluoromethylphenyl)acryloyl)piperazine-1-carbonyl]-4-fluorophenyl]methyl} -2H -phthalazin-1-one]	89.5 ± 12.6	14.8 ± 1.42	136 ± 12.5	56.8 ± 4.36	295 ± 8.25			
COc1cc(/C=C/C(=O)N2CCN(C(=O)c3cc(Cc4n[nH]c(=O)c5ccccc45)ccc3F)CC2)cc(OC)c1OC [5n, (E)-4-{[3-[4–(3-(3,4,5-trimethoxyphenyl)acryloyl)piperazine-1-carbonyl]-4-fluorophenyl]methyl} -2H -phthalazin-1-one]	66 ± 4.82	31.2 ± 4.12	99.1 ± 2.21	65.2 ± 1.08				
O=C(/C=C/c1ccc(Br)cc1)N1CCN(C(=O)c2cc(Cc3n[nH]c(=O)c4ccccc34)ccc2F)CC1 [5k, (E)-4-{[3-[4–(3-(4-bromophenyl)acryloyl)piperazine-1-carbonyl]-4-fluorophenyl]methyl} -2H -phthalazin-1-one]	43.2 ± 6.54	112 ± 5.24	80.7 ± 4.87	45.8 ± 3.76				
O=C(/C=C/c1ccccc1)N1CCN(C(=O)c2cc(Cc3n[nH]c(=O)c4ccccc34)ccc2F)CC1 [5a, (E)-4-{[3-[4-(3-phenylacryloyl)piperazine-1-carbonyl]-4-fluorophenyl]methyl}-2H-phthalazin-1-one]	75.2 ± 4.84	38.2 ± 2.15	52.9 ± 3.02	22.4 ± 1.19				
O=C(c1cc(Cc2n[nH]c(=O)c3ccccc23)ccc1F)N1CCN(C(=O)C2CC2)CC1 [Olaparib]			50.95 ± 0.46	34.4 ± 0.64		8.63 ± 1.25		
O=C(/C=C/c1ccco1)N1CCN(C(=O)c2cc(Cc3n[nH]c(=O)c4ccccc34)ccc2F)CC1 [5o, (E)-4-{[3-[4-(3-(furan-2-yl)acryloyl)piperazine-1-carbonyl]-4-fluorophenyl]methyl} -2H -phthalazin-1-one]	65.2 ± 5.98	32.2 ± 3.58	114 ± 14.9	77.6 ± 9.06				
CN(C)C(=O)Oc1cccc([N+](C)(C)C)c1 [Neostigmine, reference compound]							0.04 ± 0.01	12 ± 0.45
O=C(/C=C/c1ccc([N+](=O)[O-])cc1)N1CCN(C(=O)c2cc(Cc3n[nH]c(=O)c4ccccc34)ccc2F)CC1 [5m, (E)-4-{[3-[4–(3-(4-nitrophenyl)acryloyl)piperazine-1-carbonyl]-4-fluorophenyl]methyl} -2H -phthalazin-1-one]	93.2 ± 5.28	14 ± 1.28	12.2 ± 0.49	5.93 ± 0.19	37.9 ± 1.89			
O=C(/C=C/c1ccc(F)cc1)N1CCN(C(=O)c2cc(Cc3n[nH]c(=O)c4ccccc34)ccc2F)CC1 [5g, (E)-4-{[3-[4–(3-(4-fluorophenyl)acryloyl)piperazine-1-carbonyl]-4-fluorophenyl]methyl} -2H -phthalazin-1-one]	85.6 ± 3.69	13 ± 2.14	173 ± 30	105 ± 12.5	397 ± 7.01			

Reference: PMC6237161, “Synthesis, preliminarily biological evaluation and molecular docking study of new Olaparib analogues as multifunctional PARP-1 and cholinesterase inhibitors” (Journal of Enzyme Inhibition and Medicinal Chemistry, 2018)
